Read-outs that look alike come from different tables or passages of the source.
Assays:
[1] = target: CYP3A4 (CYP3A) (Homo sapiens, UniProt P08684); experiment: in vitro; conditions: microsomes, pH 7.4;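 further: inhibition of CYP3A-mediated 1-hydroxymidazolam formation after 10 min incubation with NADPH, quantified by HPLC MS relative to metabolite produced without test compound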
[2] = target: CYP2D6 (Homo sapiens, UniProt P10635); experiment: CYP2D6 inhibition assay (bufuralol, pooled human liver microsomes)
[3] = Microsomal stability assay, human liver microsomes;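 further: pooled human liver microsomes at 0.25 mg/mL with 1 µM compound and NADPH at 37 °C, pH 7.4, for 30 min, unchanged parent quantified by LC-MS/MS against the 0 min sample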
[4] = Microsomal stability assay, rat liver microsomes;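 further: rat liver microsomes (0.25 mg/mL) with about 1 µM compound plus 1 mM NADPH, pH 7.4, 37 °C for 30 min, parent left measured by LC-MS/MS against 0 min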
[5] = target: Beta Secretase enzyme (BACE) (Homo sapiens, UniProt P56817); experiment: In vitro enzymatic BACE FRET (fluorescence resonance energy transfer) assay; format: biochemical;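 further: fluorescence read after 1 h with 50 nM quenched peptide substrate spanning the BACE cleavage site, in pH 4.2 acetate buffer containing 10% DMSO and nonionic detergent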
[6] = system: Aβ40 in conditioned medium of cells stably expressing Amyloid Precursor Protein (APP); experiment: In vitro BACE cell-based assay (Aβ40 in conditioned medium, sandwich ELISA); conditions: Homo sapiens;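 further: compounds added as a dilution series, secreted peptide quantified by europium time-resolved fluorescence readout, potency fitted from percent of control versus compound concentration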
[7] = read-out: BACE1 FRET assay (IC50)
[8] = HEK293, HEK cells, read-out: HEK cell assay (IC50)
[9] = 2D6 IC50 (uM), CYP enzyme inhibition
[10] = BACE enzyme assay, IC50's in uM, read-out: BACE1 FRET assay
[11] = HEK293, HEK cell-based assay, IC50's in uM, read-out: HEK cell assay
[12] = 2D6 IC50, CYP enzyme inhibition
[13] = HEK293, cell-based assay, HEK cells, IC50's in uM, read-out: HEK cell assay
[14] = BACE enzyme assay, read-out: BACE1 FRET assay
[15] = HEK293, HEK cells, read-out: HEK cell assay
[16] = 2D6 IC50 (uM), CYP2D6 inhibition
[17] = BACE enzyme assay IC50, read-out: BACE1 FRET assay
[18] = HEK293, HEK cell-based assay IC50, read-out: HEK cell assay

Sequence of Beta Secretase enzyme (BACE) (P56817 46-501): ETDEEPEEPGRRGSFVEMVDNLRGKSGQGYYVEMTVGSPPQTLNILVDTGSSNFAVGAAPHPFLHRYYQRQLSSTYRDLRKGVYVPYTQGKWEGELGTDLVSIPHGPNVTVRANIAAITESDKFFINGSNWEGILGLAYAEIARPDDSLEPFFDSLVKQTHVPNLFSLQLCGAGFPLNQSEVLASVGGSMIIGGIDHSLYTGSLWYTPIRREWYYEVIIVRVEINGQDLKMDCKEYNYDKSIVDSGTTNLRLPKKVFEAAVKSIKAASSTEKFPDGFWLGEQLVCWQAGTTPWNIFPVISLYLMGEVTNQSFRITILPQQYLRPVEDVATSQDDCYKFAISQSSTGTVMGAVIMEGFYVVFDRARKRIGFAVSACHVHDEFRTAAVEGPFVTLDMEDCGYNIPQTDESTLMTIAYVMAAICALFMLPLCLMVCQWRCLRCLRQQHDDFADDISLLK
Sequence of CYP3A4 (CYP3A) (P08684 2-503): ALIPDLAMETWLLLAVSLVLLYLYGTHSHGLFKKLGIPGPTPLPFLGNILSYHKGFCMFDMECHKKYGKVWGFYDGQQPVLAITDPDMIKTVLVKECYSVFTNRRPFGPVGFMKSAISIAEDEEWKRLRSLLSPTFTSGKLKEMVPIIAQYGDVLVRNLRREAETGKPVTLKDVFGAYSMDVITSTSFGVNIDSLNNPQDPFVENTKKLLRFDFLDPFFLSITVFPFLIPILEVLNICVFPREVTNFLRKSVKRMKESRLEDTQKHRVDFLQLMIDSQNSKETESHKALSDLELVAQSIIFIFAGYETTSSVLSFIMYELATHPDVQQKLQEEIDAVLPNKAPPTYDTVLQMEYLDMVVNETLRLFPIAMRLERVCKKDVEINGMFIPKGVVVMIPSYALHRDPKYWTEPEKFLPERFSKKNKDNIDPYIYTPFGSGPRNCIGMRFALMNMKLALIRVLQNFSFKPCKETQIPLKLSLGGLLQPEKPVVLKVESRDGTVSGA
Sequence of CYP2D6 (P10635 whole entry): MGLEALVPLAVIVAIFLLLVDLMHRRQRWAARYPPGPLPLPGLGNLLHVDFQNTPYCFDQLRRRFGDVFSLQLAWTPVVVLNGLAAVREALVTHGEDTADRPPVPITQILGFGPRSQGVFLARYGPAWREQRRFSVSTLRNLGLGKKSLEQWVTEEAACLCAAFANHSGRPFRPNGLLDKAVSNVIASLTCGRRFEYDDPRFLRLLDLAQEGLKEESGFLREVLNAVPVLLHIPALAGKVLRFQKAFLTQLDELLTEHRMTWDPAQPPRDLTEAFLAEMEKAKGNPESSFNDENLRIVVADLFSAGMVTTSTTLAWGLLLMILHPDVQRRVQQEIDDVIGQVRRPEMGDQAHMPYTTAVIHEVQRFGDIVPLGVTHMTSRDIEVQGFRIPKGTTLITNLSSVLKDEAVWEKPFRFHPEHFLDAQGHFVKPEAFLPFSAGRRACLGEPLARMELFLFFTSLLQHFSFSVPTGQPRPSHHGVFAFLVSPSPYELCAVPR

SMILES | IC50 [1] | HLM ([3]; human liver microsomes) | RLM ([4]; rat liver microsomes) | IC50 [2, 9] | HLM ([3]; human liver microsomal data) | RLM ([4]; rat liver microsomal data) | IC50 [5, 10] | other results
CC(=O)N[C@@H](Cc1cc(Br)c2c(c1)OCO2)[C@H](O)CN[C@H]1CC2(CCC2)Oc2ncc(CC(C)(C)F)cc21 [compound 624] | 160 nM | 48 µL/min/mg | 150 µL/min/mg |  |  |  |  | IC50 ([2]; 2D6 IC50, CYP2D6 inhibition): 1.2 µM; IC50 [5, 7]: 0.2 µM; IC50 [6, 8]: 0.081 µM
CCO[C@@H](C)C(=O)N[C@@H](Cc1ccc2c(c1)OCO2)[C@H](O)CN[C@H]1CC2(CCC2)Oc2ncc(CC(C)C)cc21 [compound 809] | 200 nM |  |  | 6.7 µM | 33 µL/min/mg | 117 µL/min/mg | 0.269 µM | IC50 [6, 11]: 0.513 µM
COCC(=O)N[C@@H](Cc1cc(-c2nccs2)cc(-c2nccs2)c1)[C@H](O)CN[C@H]1CC2(CCC2)Oc2ncc(CC(C)(C)C)cc21 [compound 839] | 100 nM |  |  | 0.4 µM | 62 µL/min/mg | 57 µL/min/mg | 0.258 µM | IC50 [6, 11]: 0.477 µM
CCOCC(=O)N[C@@H](Cc1cccc(F)c1)[C@H](O)CN[C@H]1CC2(CCC2)Oc2ncc(CC(C)(C)C)cc21 [compound 660] | 200 nM | 829 µL/min/mg | 775 µL/min/mg |  |  |  |  | IC50 ([2]; 2D6 IC50, CYP2D6 inhibition): 1.9 µM; IC50 [5, 7]: 0.003 µM; IC50 [6, 8]: 0.018 µM
COCC(=O)N[C@@H](Cc1cccc([C@@H]2CCCO2)c1)[C@H](O)CN[C@H]1CC2(CCC2)Oc2ncc(CC(C)(C)C)cc21 [compound 915] | 600 nM |  |  |  | 921 µL/min/mg | 590 µL/min/mg | 1.96 µM | IC50 [2, 12]: 6.8 µM; IC50 [6, 13]: 0.562 µM
CO[C@H](C)C(=O)N[C@@H](Cc1ccc2c(c1)OCO2)[C@H](O)CN[C@H]1CC2(CCC2)Cc2sc(CC(C)(C)C)cc21 [compound 455] | 2600 nM |  |  |  | 211 µL/min/mg | 201 µL/min/mg |  | IC50 [2, 12]: 5.5 µM; IC50 ([5]; Table 2, read-out: BACE1 FRET assay): 0.049 µM; IC50 ([6]; HEK293, Table 2, HEK cells, read-out: HEK cell assay): 0.231 µM
COCC(=O)N[C@@H](Cc1ccc2c(c1)OCO2)[C@H](O)CN[C@H]1CC2(CCC2)Oc2ncc(CC(F)(F)F)cc21 [compound 518] | 300 nM |  |  | 2.7 µM | 26 µL/min/mg | 82 µL/min/mg |  | IC50 [5, 14]: 0.131 µM; IC50 [6, 15]: 0.34 µM
COCC(=O)N[C@@H](Cc1cc(F)cc(-c2nccs2)c1)[C@H](O)CN[C@H]1CC2(CCC2)Oc2cnc(CC(C)(C)F)cc21 [compound 718, N-((1S,2R)-3-(((4′S)-6′-(2-fluoro-2-methylpropyl)-3′,4′-dihydrospiro[cyclobutane-1,2′-pyrano[2,3-c]pyridin]-4′-yl)amino)-1-(3-fluoro-5-(1,3-thiazol-2-yl)benzyl)-2-hydroxypropyl)-2-methoxyacetamide] | 300 nM | 113 µL/min/mg | 140 µL/min/mg |  |  |  |  | IC50 [2, 16]: 0.5 µM; IC50 [5, 17]: 0.051 µM; IC50 [6, 18]: 0.062 µM
CO[C@H](C)C(=O)N[C@@H](Cc1cc(F)cc(-c2nccs2)c1)[C@H](O)CN[C@H]1CC2(CCC2)Oc2cnc(CC(C)(C)F)cc21 [compound 721, (2R)-N-((1S,2R)-3-(((4′S)-6′-(2-fluoro-2-methylpropyl)-3′,4′-dihydrospiro[cyclobutane-1,2′-pyrano[2,3-c]pyridin]-4′-yl)amino)-1-(3-fluoro-5-(1,3-thiazol-2-yl)benzyl)-2-hydroxypropyl)-2-methoxypropanamide] | 300 nM | 111 µL/min/mg | 152 µL/min/mg |  |  |  |  | IC50 [2, 16]: 0.5 µM; IC50 [5, 17]: 0.049 µM; IC50 [6, 18]: 0.118 µM
CO[C@H](C)C(=O)N[C@@H](Cc1cccc(Br)c1)[C@H](O)CN[C@H]1CC2(CCC2)Oc2ncc(CC(C)C)cc21 [compound 801] | 300 nM |  |  | 3.8 µM | 399 µL/min/mg | 644 µL/min/mg | 0.016 µM | IC50 [6, 11]: 0.118 µM
CC#Cc1cnc2c(c1)[C@@H](NC[C@@H](O)[C@H](Cc1cccc(-c3nccs3)c1)NC(=O)COC)CC1(CCC1)O2 [compound 811] | 300 nM |  |  | 1 µM | 36 µL/min/mg | 54 µL/min/mg | 0.309 µM | IC50 [6, 11]: 0.736 µM
CO[C@H](C)C(=O)N[C@@H](Cc1ccccc1)[C@H](O)CN[C@H]1CC2(CCC2)Oc2c(-c3cncn3C)cc(CC(C)C)cc21 [compound 634] | 100 nM | 50 µL/min/mg | 340 µL/min/mg |  |  |  |  | IC50 ([2]; 2D6 IC50, CYP2D6 inhibition): 4.5 µM; IC50 [5, 7]: 0.126 µM; IC50 [6, 8]: 0.014 µM
COCC(=O)N[C@@H](Cc1cccc(-c2nccs2)c1)[C@H](O)CN[C@@H]1C[C@@]2(CCOC2)Oc2ncc(CC(C)(C)C)cc21 [compound 827, N-((1S,2R)-3-(((3S,4′R)-6′-(2,2-dimethylpropyl)-3′,4,4′,5-tetrahydrospiro[furan-3,2′-pyrano[2,3-b]pyridin]-4′-yl)amino)-2-hydroxy-1-(3-(1,3-thiazol-2-yl)benzyl)propyl)-2-methoxyacetamide] | 500 nM |  |  | 2.1 µM | 97 µL/min/mg | 197 µL/min/mg | 0.006 µM | IC50 [6, 11]: 0.007 µM
CC(C)(C)Cc1cnc2c(c1)[C@@H](NC[C@@H](O)[C@H](Cc1cccc(-c3nccs3)c1F)NC(=O)[C@@H]1CCCO1)CC1(CCC1)O2 [compound 910] | 100 nM |  |  |  | 147 µL/min/mg | 153 µL/min/mg | 0.079 µM | IC50 [2, 12]: 2.4 µM; IC50 [6, 13]: 0.079 µM
CC(=O)N[C@@H](Cc1ccc(F)c(-c2nccs2)c1)[C@H](O)CN[C@H]1CC2(CCC2)Oc2ncc(CC(C)(C)C)cc21 [compound 621, N-((1S,2R)-3-(((4′S)-6′-(2,2-dimethylpropyl)-3′,4′-dihydrospiro[cyclobutane-1,2′-pyrano[2,3-b]pyridin]-4′-yl)amino)-1-(4-fluoro-3-(1,3-thiazol-2-yl)benzyl)-2-hydroxypropyl)acetamide] | 160 nM | 45 µL/min/mg | 64 µL/min/mg |  |  |  |  | IC50 ([2]; 2D6 IC50, CYP2D6 inhibition): 0.9 µM; IC50 [5, 7]: 0.001 µM; IC50 [6, 8]: 0.01 µM
COCC(=O)N[C@@H](Cc1cncs1)[C@H](O)CN[C@H]1CC2(CCC2)Oc2c(-c3ccncc3)cc(CC(C)(C)C)cc21 [compound 633] | 100 nM | 53 µL/min/mg | 153 µL/min/mg |  |  |  |  | IC50 ([2]; 2D6 IC50, CYP2D6 inhibition): 3 µM; IC50 [5, 7]: 0.021 µM; IC50 [6, 8]: 0.011 µM
Cc1ccc(CN2CCO[C@H](C(=O)N[C@@H](Cc3ccc(F)cc3)[C@H](O)CN[C@H]3CC4(CCC4)Oc4ncc(CC(C)(C)C)cc43)C2)cc1 [compound 708] | 200 nM | 310 µL/min/mg | 278 µL/min/mg |  |  |  |  | IC50 [2, 16]: 6.8 µM; IC50 [5, 17]: 0.154 µM; IC50 [6, 18]: 0.257 µM
CC(=O)N[C@@H](Cc1ccc(F)cc1)[C@H](O)CN[C@H]1CC2(CCC2)Oc2ncc(C(F)(F)C(C)(C)C)cc21 [compound 570] | 800 nM |  |  | 7.1 µM | 101 µL/min/mg | 162 µL/min/mg |  | IC50 [5, 14]: 0.136 µM; IC50 [6, 15]: 0.405 µM
COCC(=O)N[C@@H](Cc1ccccc1)[C@H](O)CN[C@H]1CC2(CCC2)Oc2c(Br)cc(CC(C)C)cc21 [compound 544] | 1800 nM |  |  | 7 µM | 399 µL/min/mg | 662 µL/min/mg |  | IC50 [5, 14]: 0.005 µM; IC50 [6, 15]: 0.937 µM
COCC(=O)N[C@@H](Cc1cccc(-c2nccs2)c1)[C@H](O)CN[C@H]1CC2(CCC2)Oc2ncc(CC(C)(C)F)cc21 [compound 813, N-((1S,2R)-3-(((4′S)-6′-(2-fluoro-2-methylpropyl)-3′,4′-dihydrospiro[cyclobutane-1,2′-pyrano[2,3-b]pyridin]-4′-yl)amino)-2-hydroxy-1-(3-(1,3-thiazol-2-yl)benzyl)propyl)-2-methoxyacetamide] | 500 nM |  |  | 1.1 µM | 32 µL/min/mg | 27 µL/min/mg | 0.006 µM | IC50 [6, 11]: 0.014 µM
CO[C@H](C)C(=O)N[C@@H](Cc1cc(F)cc(Cl)c1)[C@H](O)CN[C@H]1CC2(CCC2)Oc2cnc(CC(C)(C)F)cc21 [compound 719] | 400 nM | 515 µL/min/mg | 775 µL/min/mg |  |  |  |  | IC50 [2, 16]: 2.4 µM; IC50 [5, 17]: 0.024 µM; IC50 [6, 18]: 0.13 µM
CCOCC(=O)N[C@@H](Cc1ccc(F)c(-c2nccs2)c1)[C@H](O)CN[C@H]1CC2(CCC2)Oc2ncc(CC(C)(C)C)cc21 [compound 904] | 100 nM |  |  |  | 38 µL/min/mg | 47 µL/min/mg | 0.004 µM | IC50 [2, 12]: 0.5 µM; IC50 [6, 13]: 0.062 µM
COC(OC)C(=O)N[C@@H](Cc1cccc(F)c1)[C@H](O)CN[C@H]1CC2(CCC2)Oc2ncc(CC(C)(F)F)cc21 [compound 797] | 1400 nM |  |  | 4.1 µM | 256 µL/min/mg | 199 µL/min/mg | 0.008 µM | IC50 [6, 11]: 0.017 µM
COCC(=O)N[C@@H](Cc1cccc(F)c1)[C@H](O)CN[C@H]1CC2(CCC2)Oc2c(-c3ccncc3)cc(Cl)cc21 [compound 550] | 200 nM |  |  | 0.5 µM | 338 µL/min/mg | 315 µL/min/mg |  | IC50 [5, 14]: 0.042 µM; IC50 [6, 15]: 0.474 µM

From patent US8163909B2, “Substituted hydroxyethyl amine compounds as beta-secretase modulators and methods of use” (Amgen Inc., priority 2007, dated 2012)
